# Laboratory results as given in ChEMBL document CHEMBL1201862, “PubChem BioAssay data set” (2004).
#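 48-hour exposure; five concentrations; linearly interpolated endpoints. GI50 = concentration required for 50% inhibition of growth.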 The source made the active and inactive calls. No stated cut-off is given here; in the data, active = GI50 up to about 1.1 µM and inactive = higher.
# Assays:
# Assay in all cases: DTP human tumour cell line panel, 48 h
# [1] = system: Malme-3M
# [2] = system: SN12C
# [3] = system: NCI/ADR-RES
# [4] = system: UACC-257
# [5] = system: MDA-N
# [6] = system: SNB-19
# [7] = system: RXF 393
# [8] = system: TK-10
# [9] = system: ACHN
# [10] = system: NCI-H522
# [11] = system: MCF7
# [12] = system: OVCAR-5
# [13] = system: OVCAR-3
# [14] = system: SR
# [15] = system: U-251
# [16] = system: 786-0
# [17] = system: SW-620
# [18] = system: HCT-15
# [19] = system: BT-549
# [20] = system: OVCAR-4
SMILES,GI50 [1],GI50 [2],GI50 [3],GI50 [4],GI50 [5],GI50 [6],GI50 [7],GI50 [8],GI50 [9],GI50 [10],GI50 [11],GI50 [12],GI50 [13],GI50 [14],GI50 [15],GI50 [16],GI50 [17],GI50 [18],GI50 [19],GI50 [20]
CC(=O)OC1CCC2(C)C(CCC3C2CC(=O)C2(C)C3CC(N3CC3)C2C(C)=O)C1 (stereo not given),18.7 µM (inactive),21.9 µM (inactive),24.6 µM (inactive),17.3 µM (inactive),21.8 µM (inactive),20.9 µM (inactive),16.5 µM (inactive),19.6 µM (inactive),13.8 µM (inactive),12.2 µM (inactive),15.4 µM (inactive),37.4 µM (inactive),26.2 µM (inactive),1.78 µM (inactive),17.2 µM (inactive),18.6 µM (inactive),21.1 µM (inactive),18.9 µM,17.4 µM (inactive),19.8 µM (inactive)
COC(=O)[C@H]1[C@@H](C(C)C)O[C@@H](C(C)C)O[C@H]1C(F)(F)F,> 100 µM (inactive),> 100 µM (inactive),> 100 µM (inactive),> 100 µM (inactive),> 100 µM (inactive),> 100 µM (inactive),> 100 µM (inactive),> 100 µM (inactive),> 100 µM (inactive),> 100 µM (inactive),> 100 µM (inactive),> 100 µM (inactive),> 100 µM (inactive),> 100 µM (inactive),> 100 µM (inactive),> 100 µM (inactive),> 100 µM (inactive),> 100 µM,> 100 µM (inactive),> 100 µM (inactive)
Nc1nc(Cl)c(N)c(NCC2(CO)CC2)n1,> 100 µM (inactive),> 100 µM (inactive),> 100 µM (inactive),> 100 µM (inactive),> 100 µM (inactive),> 100 µM (inactive),> 100 µM (inactive),> 100 µM (inactive),> 100 µM (inactive),> 100 µM (inactive),> 100 µM (inactive),> 100 µM (inactive),> 100 µM (inactive),> 100 µM (inactive),> 100 µM (inactive),> 100 µM (inactive),> 100 µM (inactive),> 100 µM,> 100 µM (inactive),> 100 µM (inactive)
C=CC(OC(C)=O)c1ccc(OC(=O)C(C)C)c(OC)c1 (stereo not given),1.94 µM (inactive),3.63 µM (inactive),10.2 µM (inactive),9.86 µM (inactive),5.22 µM (inactive),11.8 µM (inactive),3.18 µM (inactive),5.04 µM (inactive),3.34 µM (inactive),1.54 µM (inactive),2.36 µM (inactive),2.51 µM (inactive),5.81 µM (inactive),2.49 µM (inactive),2.39 µM (inactive),1.99 µM (inactive),2.6 µM (inactive),4.98 µM,6.79 µM (inactive),4.9 µM (inactive)
CC(=O)OCc1cncn1S(=O)(=O)c1ccc(C)cc1,> 100 µM (inactive),> 91.2 µM (inactive),> 55.5 µM (inactive),> 100 µM (inactive),9.46 µM (inactive),> 100 µM (inactive),> 100 µM (inactive),> 100 µM (inactive),> 100 µM (inactive),71.9 µM (inactive),> 25.4 µM (inactive),> 100 µM (inactive),43.5 µM (inactive),11.4 µM (inactive),> 87.7 µM (inactive),> 100 µM (inactive),36.4 µM (inactive),20.3 µM,> 83.4 µM (inactive),> 76.7 µM (inactive)
Cc1cc(NS(=O)(=O)c2ccc(NC(=O)c3cccc4c(NNc5ccc(S(=O)(=O)N=C(N)N)cc5)c5ccccc5nc34)cc2)no1,94.4 µM (inactive),70.3 µM (inactive),> 100 µM (inactive),> 100 µM (inactive),68.5 µM (inactive),45.6 µM (inactive),46.8 µM (inactive),> 100 µM (inactive),50.4 µM (inactive),29 µM (inactive),43.7 µM (inactive),83.6 µM (inactive),41.2 µM (inactive),35.8 µM (inactive),22.6 µM (inactive),> 100 µM (inactive),60 µM (inactive),63.4 µM,57.8 µM (inactive),58.7 µM (inactive)
CC(C)N(C(=O)c1ccc(NCc2cc(O)ccc2O)cc1)C(C)C,13.9 µM (inactive),18.2 µM (inactive),14.8 µM (inactive),17.4 µM (inactive),17.7 µM (inactive),19.2 µM (inactive),13.1 µM (inactive),15.6 µM (inactive),13.8 µM (inactive),1.59 µM (inactive),23.9 µM (inactive),21.5 µM (inactive),11.6 µM (inactive),> 100 µM (inactive),15.8 µM (inactive),13 µM (inactive),21.5 µM (inactive),16.8 µM,11.9 µM (inactive),15.1 µM (inactive)
Nc1cccc(/C=C/C(=O)N2CCN(CCOC(c3ccccc3)c3ccccc3)CC2)c1,16.7 µM (inactive),17.5 µM (inactive),17.3 µM (inactive),17.7 µM (inactive),17.8 µM (inactive),17 µM (inactive),15.3 µM (inactive),15 µM (inactive),16.1 µM (inactive),15 µM (inactive),16.8 µM (inactive),19.1 µM (inactive),16.6 µM (inactive),14.4 µM (inactive),15.8 µM (inactive),16.7 µM (inactive),15.7 µM (inactive),16.3 µM,15 µM (inactive),12.4 µM (inactive)
CCOC(=O)N1N=C(/C(C)=N/OC)C(C)[S+]1[O-] (stereo not given),> 100 µM (inactive),> 100 µM (inactive),> 100 µM (inactive),> 100 µM (inactive),> 100 µM (inactive),> 100 µM (inactive),> 100 µM (inactive),> 100 µM (inactive),> 100 µM (inactive),> 100 µM (inactive),> 100 µM (inactive),> 100 µM (inactive),> 100 µM (inactive),> 100 µM (inactive),> 100 µM (inactive),> 100 µM (inactive),> 100 µM (inactive),> 100 µM,> 100 µM (inactive),> 100 µM (inactive)
COc1ccccc1/C=C1\CCC(Cc2ccccc2)(CN(C)C)C1=O (stereo not given),14.1 µM (inactive),3.75 µM (inactive),0.989 µM (active),12.3 µM (inactive),0.685 µM (active),1.57 µM (inactive),7.93 µM (inactive),5.96 µM (inactive),12.6 µM (inactive),0.597 µM (active),0.292 µM (active),14.5 µM (inactive),0.942 µM (active),0.0948 µM (active),0.524 µM (active),1.43 µM (inactive),0.259 µM (active),0.29 µM,5 µM (inactive),17.8 µM (inactive)
CCNc1nnc(-c2ccccc2Nc2ccccc2-c2nnc(NCC)s2)s1,19.2 µM (inactive),18.9 µM (inactive),10.5 µM (inactive),23.6 µM (inactive),9.73 µM (inactive),27.4 µM (inactive),21.6 µM (inactive),11.4 µM (inactive),7.35 µM (inactive),6.75 µM (inactive),2.28 µM (inactive),18.2 µM (inactive),18.3 µM (inactive),47.8 µM (inactive),11.4 µM (inactive),11 µM (inactive),19.4 µM (inactive),4.37 µM,19.6 µM (inactive),27.5 µM (inactive)
Cc1occc1C(=S)Nc1ccc(Cl)c(/C=N/OC(C)(C)C)c1,21.8 µM (inactive),15.1 µM (inactive),14.7 µM (inactive),16.7 µM (inactive),18.9 µM (inactive),18.7 µM (inactive),13.4 µM (inactive),21.9 µM (inactive),14.6 µM (inactive),11.7 µM (inactive),18.1 µM (inactive),15 µM (inactive),15.6 µM (inactive),12.9 µM (inactive),13.9 µM (inactive),18.7 µM (inactive),18.5 µM (inactive),15 µM,17.6 µM (inactive),18.3 µM (inactive)
O=C(/C=C/c1ccc(O)c(O)c1)c1ccc(O)cc1O [BUTEIN],13.9 µM (inactive),14.5 µM (inactive),17.4 µM (inactive),15.6 µM (inactive),6.14 µM (inactive),18.5 µM (inactive),12.2 µM (inactive),19.4 µM (inactive),18 µM (inactive),2.25 µM (inactive),3.98 µM (inactive),17.4 µM (inactive),15.4 µM (inactive),7.1 µM (inactive),9.25 µM (inactive),12 µM (inactive),8.53 µM (inactive),16.3 µM,9.27 µM (inactive),19.1 µM (inactive)
Cn1cc(NC(=O)c2cc(NC(=O)CNC(=N)N)cn2C)cc1C(=O)NCCC(=N)N [NETROPSIN CHLORIDE],41.7 µM (inactive),> 100 µM (inactive),> 100 µM (inactive),> 100 µM (inactive),> 100 µM (inactive),> 100 µM (inactive),> 100 µM (inactive),> 100 µM (inactive),> 100 µM (inactive),> 100 µM (inactive),> 100 µM (inactive),> 100 µM (inactive),> 100 µM (inactive),> 100 µM (inactive),> 100 µM (inactive),> 100 µM (inactive),> 100 µM (inactive),> 100 µM,> 100 µM (inactive),> 100 µM (inactive)
